Data reported in patent US20260166141A1, “PHARMACEUTICAL COMPOSITION OF RIP2 INHIBITOR IN COMBINATION WITH IMMUNE CHECKPOINT INHIBITOR AND USE THEREOF” (NINGBO COMBIREG PHARMACEUTICAL TECHNOLOGY CO., LTD., priority 2022, published 2026).

How the values were obtained:
Type in all cases: in vivo
colorectal cancer (MC38) [1] = assay: colorectal cancer (MC38) tumor-bearing model in C57BL/6 mice, GSK583 combined with atezolizumab; settings: for tumor growth (tumor volume progression): atezolizumab 150 μg/mouse i.p. Days 0, 4, 11, GSK583 1 mg/kg i.v. once every 4 days, 4 doses, compared to IgG control
Experimental: (§1) Test substances atezolizumab (Roche) and IgG control antibody (in VivoMAb human IgG1 isotype control; BioXCell, BE0297) were prepared in saline. GSK583 was formulated as a 20× stock solution in DMSO and diluted to the dosing concentration with saline containing 5% polyoxyl 35 castor oil (Cremophor EL) before use.
(§2) Experimental animals and tumor lines: SPF-grade male wild-type C57BL/6 mice (6 to 8 weeks old, 20 to 25 g) were purchased from the Laboratory Animal Resources Center, Tsinghua University. The cells used in the experiment were murine colorectal cancer cells (MC38), which were purchased from the Cell Bank of Peking Union Medical College.
According to the method shown in (A and B of FIG. 3), the mice were subcutaneously inoculated with MC38 cells at a concentration of 5×10^6 cells/mL and 0.1 mL/mouse. When the tumor grew to a volume within the range of 100 mm^3, the mice were randomly divided into 4 groups based on tumor volume, with 6 to 8 mice per group, and dosing was initiated. The dosing regimen was as follows: (i) blank control (IgG control, 150 μg/mouse) group; (ii) GSK583 (1 mg/kg) group; (iii) atezolizumab (150 μg/mouse) group; (iv) atezolizumab (150 μg/mouse)+GSK583 (1 mg/kg). GSK583 was administered via intravenous injection once every 4 days for a total of 4 doses; IgG control and atezolizumab were administered via intraperitoneal injection on Days 0, 4, and 11 for a total of 3 doses. The day of grouping and dosing was recorded as Day 0. During the dosing process, the animals were weighed every 2 to 3 days, and the long and short diameters of the tumor were measured with a vernier caliper. The tumor size was calculated by the formula: (½)×long diameter×(short diameter)^2. The experiment was terminated on Day 15. After the mice were euthanized and dissected, the tumor was removed and weighed, and the tumor inhibition rate was calculated.

colorectal cancer (MC38) [2] = assay: colorectal cancer (MC38) tumor-bearing model in WT and RIP2−/− C57BL/6 mice, atezolizumab; settings: for tumor growth (tumor volume progression): 150 μg/mouse i.p. Days 0, 4, 11, 18; for tumor weight: compared to corresponding control group
Experimental: Test substances atezolizumab (Roche) and IgG control antibody (in VivoMAb human IgG1 isotype control; BioXCell, BE0297) were prepared in saline. Experimental animals and tumor lines: SPF-grade male wild-type (WT) C57BL/6 mice (20 to 25 g) and RIP2 knockout (RIP2^−/−) mice (6 to 8 weeks old, 20 to 25 g) were purchased from Shanghai Model Organisms Center, Inc. The mice were generated using CRISPR-Cas9 technology and bred at the Laboratory Animal Resources Center, Tsinghua University. The cells used in the experiment were murine colorectal cancer cells (MC38), which were purchased from the Cell Bank of Peking Union Medical College.
According to the method shown in (A and B of FIG. 1), the mice were subcutaneously inoculated with MC38 cells at a concentration of 5×10^6 cells/mL and 0.1 mL/mouse. When the tumor grew to a volume within the range of 100 mm^3, WT mice and RIP2^−/− mice were randomly divided into 2 groups based on tumor volume, with 6 to 8 mice per group, and dosing was initiated. The dosing regimen was as follows: (i) WT-blank control (WT-IgG control, 150 μg/mouse) group; (ii) WT-atezolizumab (150 μg/mouse) group; (iii) RIP2^−/−-blank control (RIP2^−/−-IgG control, 150 μg/mouse) group; (iv) RIP2^−/−-atezolizumab (150 μg/mouse) group. IgG control and atezolizumab were administered via intraperitoneal injection on Days 0, 4, 11, and 18 for a total of 4 doses. The day of grouping and dosing was recorded as Day 0. During the dosing process, the animals were weighed every 2 to 3 days, and the long and short diameters of the tumor were measured with a vernier caliper. The tumor size was calculated by the formula: (1/2)×long diameter×(short diameter)^2. The experiment was terminated on Day 20. After the mice were euthanized and dissected, the tumor was removed and weighed, and the tumor inhibition rate was calculated by the formula: [([…])/average tumor weight of the control group]×100%.

colorectal cancer (MC38) [3] = assay: colorectal cancer (MC38) tumor-bearing model in C57BL/6 mice, GSK583 combined with pembrolizumab; settings: Day 20; pembrolizumab 150 μg/mouse i.p.; GSK583 1 mg/kg i.v. once every 4 days; compared to IgG control
Experimental: as §1, with “pembrolizumab (Merck & Co., Inc.)” for “atezolizumab (Roche)”
as §2
According to the method shown in (A and B of FIG. 7), the mice were subcutaneously inoculated with MC38 cells at a concentration of 5×10^6 cells/mL and 0.1 mL/mouse. When the tumor grew to a volume within the range of 100 mm^3, the mice were randomly divided into 3 groups based on tumor volume, with 6 to 7 mice per group, and dosing was initiated. […] The day of grouping and dosing was recorded as Day 0. During the dosing process, the animals were weighed every 2 to 3 days, and the long and short diameters of the tumor were measured with a vernier caliper. The tumor size was calculated by the formula: (½)×long diameter×(short diameter)^2. […]

Compound	tumor growth (tumor volume progression) (colorectal cancer (MC38) [1])	tumor weight (colorectal cancer (MC38) [1]; end of dosing (Day 15), compared to control group)	inhibitory effect on tumor growth, RIP2−/− mice compared to WT mice (colorectal cancer (MC38) [2]; 150 μg/mouse i.p., tumor volume)	tumor growth (tumor volume progression) (colorectal cancer (MC38) [2]; RIP2−/− mice, compared to RIP2−/−-IgG control)	tumor weight (colorectal cancer (MC38) [2]; RIP2−/− mice, end of dosing (Day 20))	tumor growth (tumor volume progression) (colorectal cancer (MC38) [2]; WT mice, compared to WT-IgG control)	tumor weight (colorectal cancer (MC38) [2]; WT mice, end of dosing (Day 20))	anti-tumor effect (tumor weight, tumor weight inhibition rate), RIP2−/− mice compared to WT mice (colorectal cancer (MC38) [2]; end of dosing (Day 20))	tumor growth (tumor volume progression) (colorectal cancer (MC38) [3])
CC(C)(C)S(=O)(=O)c1ccc2nccc(Nc3n[nH]c4ccc(F)cc34)c2c1 [GSK583]	no significant inhibitory effect on tumor growth	–	–	–	–	–	–	–	–
atezolizumab: programmed death-ligand 1 (PD-L1) inhibitor, atezolizumab (Roche)	significantly inhibited tumor growth	significantly lower than that in the control group	significantly improved	significantly inhibited tumor growth	significantly reduced tumor weight	significantly inhibited tumor growth	significantly reduced tumor weight	significantly stronger than that in WT mice	–
pembrolizumab: programmed death 1 (PD-1) inhibitor, pembrolizumab (Merck & Co., Inc.)	–	–	–	–	–	–	–	–	significantly inhibited tumor growth
